# Experimental data taken from paper PMC8253220, “Molecular design, synthesis and in vitro biological evaluation of thienopyrimidine–hydroxamic acids as chimeric kinase HDAC inhibitors: a challenging approach to combat cancer” (Journal of Enzyme Inhibition and Medicinal Chemistry, 2021).
# Where “and” joins values, the source holds several entries; their conditions need not be identical. Identical values can stand only once.
# What was measured:
# Assay type in all cases: cell-based, human
# MDA-MB-231/ATCC = experiment: NCI one-dose screen; conditions: Breast MDA-MB-231/ATCC, 10 µM single dose
# Summary of the method: (§1)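 One concentration (10 μM) applied to each line of the full NCI-60 panel; percent growth compared against untreated cells.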
# U251 = experiment: NCI one-dose screen; conditions: CNS U251, 10 µM single dose
# Summary of the method: (§2)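 In vitro antiproliferative testing: NCI-60 panel, initial single dose 10 μM, inhibition % derived from percent growth of treated versus untreated control cells.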
# NCI-H460 = experiment: NCI one-dose screen; conditions: NSCLC NCI-H460, 10 µM single dose
# Summary of the method: as §1
# HOP-92 = experiment: NCI one-dose screen; conditions: NSCLC HOP-92, 10 µM single dose
# Summary of the method: as §1
# HCT-15 = experiment: NCI one-dose screen; conditions: Colon HCT-15, 10 µM single dose
# Summary of the method: as §1
# HCC-2998 = experiment: NCI one-dose screen; conditions: Colon HCC-2998, 10 µM single dose
# Summary of the method: as §1
# PC-3 = experiment: NCI one-dose screen; conditions: Prostate PC-3, 10 µM single dose
# Summary of the method: (§3)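 Compounds were tested at a single dose of 10 μM across the full NCI-60 cell line panel. Growth was expressed as percent growth relative to untreated control cells, reported as percent inhibition.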
# A549/ATCC = experiment: NCI one-dose screen; conditions: NSCLC A549/ATCC, 10 µM single dose
# Summary of the method: as §1
# SF-295 = experiment: NCI one-dose screen; conditions: CNS SF-295, 10 µM single dose
# Summary of the method: as §1
# NCI-H322M = experiment: NCI one-dose screen; conditions: NSCLC NCI-H322M, 10 µM single dose
# Summary of the method: as §1
# SN12C = experiment: NCI one-dose screen; conditions: Renal SN12C, 10 µM single dose
# Summary of the method: as §1
# SK-OV-3 = experiment: NCI one-dose screen; conditions: Ovarian SK-OV-3, 10 µM single dose
# Summary of the method: as §1
# RXF 393 = experiment: NCI one-dose screen; conditions: Renal RXF 393, 10 µM single dose
# Summary of the method: as §1
# HS 578T = experiment: NCI one-dose screen; conditions: Breast HS 578T, 10 µM single dose
# Summary of the method: as §1
# DU-145 = experiment: NCI one-dose screen; conditions: Prostate DU-145, 10 µM single dose
# Summary of the method: as §1
# OVCAR-8 = experiment: NCI one-dose screen; conditions: Ovarian OVCAR-8, 10 µM single dose
# Summary of the method: as §1
# UO-31 = experiment: NCI one-dose screen; conditions: for Growth Percent: Renal UO-31, 10 µM single dose
# Summary of the method: as §2
# OVCAR-3 = experiment: NCI one-dose screen; conditions: Ovarian OVCAR-3, 10 µM single dose
# Summary of the method: as §1
# MDA-MB-468 = experiment: NCI one-dose screen; conditions: for Growth Percent: Breast MDA-MB-468, 10 µM single dose
# Summary of the method: (§4)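 Each cell line received compound at 10 μM as part of the NCI one-dose protocol. Values reflect growth inhibition percent calculated from growth relative to untreated controls.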
# OVCAR-4 = experiment: NCI one-dose screen; conditions: Ovarian OVCAR-4, 10 µM single dose
# Summary of the method: as §1
# BT-549 = experiment: NCI one-dose screen; conditions: Breast BT-549, 10 µM single dose
# Summary of the method: as §1
# SF-539 = experiment: NCI one-dose screen; conditions: CNS SF-539, 10 µM single dose
# Summary of the method: as §4
# TK-10 = experiment: NCI one-dose screen; conditions: Renal TK-10, 10 µM single dose
# Summary of the method: as §1
# OVCAR-5 = experiment: NCI one-dose screen; conditions: Ovarian OVCAR-5, 10 µM single dose
# Summary of the method: as §1
# SK-MEL-5 = experiment: NCI one-dose screen; conditions: Melanoma SK-MEL-5, 10 µM single dose
# Summary of the method: as §1
# RPMI-8226 = experiment: NCI one-dose screen; conditions: Leukemia RPMI-8226, 10 µM single dose
# Summary of the method: as §1
# HL-60(TB) = experiment: NCI one-dose screen; conditions: Leukemia HL-60(TB), 10 µM single dose
# Summary of the method: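 At 10 μM, a single concentration, compounds were evaluated for antiproliferative effect in the NCI 60-line screen, with growth expressed relative to untreated control cells.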
# MDA-MB-435 = experiment: NCI one-dose screen; conditions: Melanoma MDA-MB-435, 10 µM single dose
# Summary of the method: as §1
# CAKI-1 = experiment: NCI one-dose screen; conditions: Renal CAKI-1, 10 µM single dose
# Summary of the method: as §1
# KM12 = experiment: NCI one-dose screen; conditions: Colon KM12, 10 µM single dose
# Summary of the method: as §4
# MCF7 = experiment: NCI one-dose screen; conditions: Breast MCF7, 10 µM single dose
# Summary of the method: as §4
# UACC-257 = experiment: NCI one-dose screen; conditions: Melanoma UACC-257, 10 µM single dose
# Summary of the method: as §3
# EKVX = experiment: NCI one-dose screen; conditions: NSCLC EKVX, 10 µM single dose
# Summary of the method: as §2
# SK-MEL-28 = experiment: NCI one-dose screen; conditions: Melanoma SK-MEL-28, 10 µM single dose
# Summary of the method: as §3
# HOP-62 = experiment: NCI one-dose screen; conditions: NSCLC HOP-62, 10 µM single dose
# Summary of the method: as §2
# full NCI 60 cell panel = experiment: NCI one-dose screen, whole panel statistics; conditions: 1.00E-5 Molar; for Mean Growth Percent: mean over panel
# Summary of the method: as §3
SMILES,Growth Percent (MDA-MB-231/ATCC),Growth Percent (U251),Growth Percent (NCI-H460),Growth Percent (HOP-92),Growth Percent (HCT-15),Growth Percent (HCC-2998),Growth Percent (PC-3),Growth Percent (A549/ATCC),Growth Percent (SF-295),Growth Percent (NCI-H322M),Growth Percent (SN12C),Growth Percent (SK-OV-3),Growth Percent (RXF 393),Growth Percent (HS 578T),Growth Percent (DU-145),Growth Percent (OVCAR-8),Growth Percent (UO-31),Growth Percent (OVCAR-3),Growth Percent (MDA-MB-468),Growth Percent (OVCAR-4),further results
"Cc1c(C(=O)NCCCC(=O)NO)sc2ncnc(Nc3ccc(Cl)cc3)c12 [Compound 20c, 4–(4-chlorophenylamino)-N-(4-(hydroxyamino)-4-oxobutyl)-5-methylthieno[2,3-d]pyrimidine-6-carboxamide]",95.4% and 95.46%,103.1% and 103.12%,101.9% and 101.95%,111.8% and 111.83%,99.0% and 99.06%,102.4% and 102.48%,101.4% and 101.49%,104.4% and 104.46%,101.19%,101.3% and 101.35%,100.0% and 100.04%,112.9% and 112.92%,109.5% and 109.55%,99.4% and 99.45%,116.8% and 116.86%,105.5%,81.5% and 81.51%,106.5% and 106.57%,110.9% and 110.91%,109.4%,Growth Percent (BT-549): 116.5%; Growth Percent (SF-539): 95.3% and 95.36%; Growth Percent (TK-10): 152.2% and 152.23%; Growth Percent (OVCAR-5): 109.8% and 109.86%; Growth Percent (SK-MEL-5): 100.0%; Growth Percent (RPMI-8226): 103.6% and 103.64%; Growth Percent (HL-60(TB)): 103.4% and 103.41%; Growth Percent (MDA-MB-435): 103.8% and 103.83%; Growth Percent (CAKI-1): 93.0% and 93.08%; Growth Percent (KM12): 101.7% and 101.78%; Growth Percent (MCF7): 91.4% and 91.44%; Growth Percent (UACC-257): 112.8% and 112.86%; Growth Percent (EKVX): 90.5% and 90.52%; Growth Percent (SK-MEL-28): 112.3% and 112.39%; Growth Percent (HOP-62): 102.5% and 102.52%; Delta (one dose mean graph) (full NCI 60 cell panel): 23.92%; Range (one dose mean graph) (full NCI 60 cell panel): 73.06%; Mean Growth Percent (full NCI 60 cell panel): 103.09%
"Cc1c(C(=O)NCCCC(=O)NO)sc2ncnc(Nc3ccc(F)c(Cl)c3)c12 [Compound 20d, 4–(3-chloro-4-fluorophenylamino)-N-(4-(hydroxyamino)-4-oxobutyl)-5-methylthieno[2,3-d]pyrimidine-6-carboxamide]",99.7% and 99.77%,99.1% and 99.18%,101.8% and 101.82%,118.7% and 118.75%,99.6% and 99.67%,104.1% and 104.19%,105.3% and 105.36%,94.0% and 94.08%,101.9%,105.2% and 105.25%,103.5% and 103.55%,122.6% and 122.66%,102.5% and 102.57%,99.9% and 99.99%,109.9% and 109.99%,99.6% and 99.61%,76.3% and 76.32%,108.4% and 108.42%,83.8% and 83.88%,104.8% and 104.88%,"inhibition at 10 µM (UO-31; Homo sapiens, renal UO-31, 10 μM): 23.7%; inhibition at 10 µM (MDA-MB-468; Homo sapiens, breast MDA-MB-468, 10 μM): 16.2%; Growth Percent (BT-549): 117.9% and 117.96%; Growth Percent (SF-539): 100.8% and 100.82%; Growth Percent (TK-10): 124.1% and 124.14%; Growth Percent (OVCAR-5): 100.1% and 100.15%; Growth Percent (SK-MEL-5): 100.4% and 100.45%; Growth Percent (RPMI-8226): 108.7% and 108.75%; Growth Percent (HL-60(TB)): 104.6% and 104.62%; Growth Percent (MDA-MB-435): 101.6% and 101.67%; Growth Percent (CAKI-1): 92.1% and 92.19%; Growth Percent (KM12): 101.5% and 101.54%; Growth Percent (MCF7): 91.4% and 91.48%; Growth Percent (UACC-257): 103%; Growth Percent (EKVX): 94.4% and 94.41%; Growth Percent (SK-MEL-28): 111.4% and 111.42%; Growth Percent (HOP-62): 105.6% and 105.66%; Delta (one dose mean graph) (full NCI 60 cell panel): 26.89%; Range (one dose mean graph) (full NCI 60 cell panel): 47.82%; Mean Growth Percent (full NCI 60 cell panel): 103.21%"
